The structures appear in SMILES notation.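 Assay format: 96-well plates, 48-hour exposure. GI50 is the concentration that inhibits growth by half. The concentration for full growth arrest is given as TGI.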

Some test systems named below: UACC-257 melanoma; SF-295 CNS; COLO 205 colon; HL-60(TB) leukemia; SK-MEL-2 melanoma; CCRF-CEM leukemia; MALME-3M melanoma; M14 melanoma; PC-3 prostate.
Common to all, as to experiment: NCI anticancer screen, dose series, 48 h

Turning to `C=CC1=CC(C)C[C@]1(O)C(=O)OC` (some centres not stated), the GI50 in the assay on UACC-257 melanoma, in the assay with SF-295 CNS, in the assay with COLO 205 colon, in the assay with HL-60(TB) leukemia, in the assay with SK-MEL-2 melanoma and in the assay on CCRF-CEM leukemia was > 100 µM in each case. The GI50 with MALME-3M melanoma and in the assay with M14 melanoma was > 100 µM throughout.

Consider `CC1(C)CC(=O)c2c(oc3cc(O)c(O)cc23)C1`, for which the TGI with UACC-257 melanoma was > 100 µM; with SF-295 CNS it was > 100 µM; with COLO 205 colon it was > 100 µM; with HL-60(TB) leukemia it was 48.5 µM; with SK-MEL-2 melanoma, 76.8 µM; with CCRF-CEM leukemia, 92 µM. For the same molecule, the TGI amounted to 94.6 µM in the assay on MALME-3M melanoma and 53.9 µM with M14 melanoma.

Turning to `COC(=O)c1cc2c3c(ccc2[nH]1)N(C(=O)c1cc2c4c(ccc2[nH]1)N(C(=O)c1cc2c5c(ccc2[nH]1)N(C(N)=O)CC5)CC4)CC3`, the TGI in the assay with UACC-257 melanoma was > 100 µM; in the assay with SF-295 CNS it was 44 µM; with COLO 205 colon, > 36 µM; in the assay on HL-60(TB) leukemia, > 70.5 µM; in the assay with SK-MEL-2 melanoma, > 24.4 µM; in the assay with CCRF-CEM leukemia, > 51.2 µM. The TGI with MALME-3M melanoma was > 24.2 µM; in the assay with M14 melanoma, > 21.3 µM.

`COc1nc2c(c(O)c(C)c(=O)n2OC2OC(COC(C)=O)C(OC(C)=O)C(OC(C)=O)C2OC(C)=O)c(=O)n1C` (configuration not stated): the TGI in the assay on SF-295 CNS, with COLO 205 colon, in the assay on SK-MEL-2 melanoma, in the assay on CCRF-CEM leukemia and in the assay on M14 melanoma was > 100 µM in each case.

On to `NC(=O)c1c[se]c(C2OC(COP(=O)(O)CP(=O)(O)OCC3OC(n4cnc5c(N)ncnc54)C(O)C3O)C(O)C2O)n1` (configuration not stated), for which the TGI in the assay with UACC-257 melanoma, in the assay on SF-295 CNS, in the assay with COLO 205 colon, in the assay on HL-60(TB) leukemia, in the assay on SK-MEL-2 melanoma and with CCRF-CEM leukemia was > 100 µM each time. The TGI in the assay with MALME-3M melanoma and in the assay with M14 melanoma was > 100 µM each time.

`CCC(=O)c1cc([N+](=O)[O-])c(Br)s1`: the GI50 with UACC-257 melanoma was 1.21 µM; in the assay on SF-295 CNS, 15.5 µM; with COLO 205 colon, 1.99 µM; in the assay on MALME-3M melanoma, 1.85 µM; with M14 melanoma, 3.13 µM; in the assay on PC-3 prostate it was 10.3 µM. The TGI with UACC-257 melanoma was determined as 2.52 µM; in the assay with SF-295 CNS, 31.6 µM; with COLO 205 colon, 3.56 µM; with MALME-3M melanoma it was 3.87 µM; with M14 melanoma it was 10.6 µM; in the assay on PC-3 prostate, 24.4 µM.

Turning to `CCCCCCCCCC(=O)Oc1cccc2onc(C)c12`, the TGI was > 100 µM in the assay on UACC-257 melanoma; > 100 µM in the assay on SF-295 CNS; > 100 µM in the assay with COLO 205 colon; 56.4 µM in the assay with HL-60(TB) leukemia; > 100 µM with SK-MEL-2 melanoma; > 100 µM with CCRF-CEM leukemia. In addition, the TGI with MALME-3M melanoma and in the assay on M14 melanoma was > 100 µM throughout.

In the case of `CC[P+]1(CC)CCCC1`, the TGI with UACC-257 melanoma, with SF-295 CNS, with COLO 205 colon, in the assay with SK-MEL-2 melanoma, in the assay on CCRF-CEM leukemia and in the assay with MALME-3M melanoma was > 100 µM throughout. In addition, in the assay on M14 melanoma, the TGI is > 100 µM.

Regarding `O=[N+]([O-])C1C2C=CC(C2)[C@H]1c1ccc(Cl)cc1Cl` (some centres not stated), the TGI in the assay on UACC-257 melanoma was 99 µM; in the assay on SF-295 CNS it was > 100 µM; in the assay on HL-60(TB) leukemia, 53.2 µM; with SK-MEL-2 melanoma, > 100 µM; in the assay with CCRF-CEM leukemia, > 100 µM; with MALME-3M melanoma, > 100 µM.

Consider `c1cnc2[nH]cc(-c3csc(-c4cn(CCCN5CCCCC5)c5ccccc45)n3)c2c1`, for which the GI50 was 1.97 µM in the assay on UACC-257 melanoma; 1.65 µM in the assay on SF-295 CNS; 1.88 µM in the assay with HL-60(TB) leukemia; 2.04 µM with SK-MEL-2 melanoma; 1.76 µM in the assay with M14 melanoma; 1.59 µM in the assay with PC-3 prostate. The TGI in the assay on UACC-257 melanoma was 3.73 µM; in the assay on SF-295 CNS, 3.18 µM; in the assay with HL-60(TB) leukemia it was 3.74 µM; with SK-MEL-2 melanoma it was 4.24 µM; with M14 melanoma, 3.45 µM; in the assay on PC-3 prostate, 3.05 µM.

Take `c1ccc(NC[Si]23OCCN(CCO2)CCO3)cc1`: the TGI in the assay with UACC-257 melanoma, with SF-295 CNS, in the assay with COLO 205 colon, with SK-MEL-2 melanoma, in the assay with CCRF-CEM leukemia and in the assay with MALME-3M melanoma was > 100 µM throughout.

As to `CC(=O)[CH-]C(=O)c1ccccc1.CC(=O)[CH-]C(=O)c1ccccc1.[CH2-]CCC.[CH2-]CCC.[Sn+4]`, the GI50 in the assay with UACC-257 melanoma was 0.343 µM; in the assay with SF-295 CNS, 1.51 µM; in the assay with COLO 205 colon, 0.984 µM; in the assay on HL-60(TB) leukemia it was 0.322 µM; in the assay on SK-MEL-2 melanoma it was 0.555 µM; in the assay on CCRF-CEM leukemia, 0.261 µM. Besides, the GI50 with MALME-3M melanoma was 0.63 µM; in the assay on M14 melanoma, 1.16 µM. The TGI in the assay on UACC-257 melanoma came to 1.69 µM; in the assay with SF-295 CNS, 2.87 µM; in the assay with COLO 205 colon, 2.47 µM; in the assay on HL-60(TB) leukemia, 1.09 µM; in the assay on SK-MEL-2 melanoma, 1.77 µM; in the assay with CCRF-CEM leukemia, 0.745 µM. Also, the TGI is 1.91 µM with MALME-3M melanoma and 2.62 µM in the assay with M14 melanoma.

Turning to `CC(C)(C)c1cc(CCC(=O)Nc2ccc(Cl)cc2Cl)nc(N)n1`, the TGI in the assay with UACC-257 melanoma, with SF-295 CNS, in the assay with COLO 205 colon, in the assay with HL-60(TB) leukemia, in the assay with SK-MEL-2 melanoma and in the assay with CCRF-CEM leukemia was > 100 µM in each case. Further, the TGI in the assay on MALME-3M melanoma and in the assay with M14 melanoma was > 100 µM in each case.

For the molecule `C[N+](C)=c1nc(N2CCOCC2)ss1`, the TGI in the assay with UACC-257 melanoma, in the assay on SF-295 CNS, in the assay on HL-60(TB) leukemia, with SK-MEL-2 melanoma, with CCRF-CEM leukemia and with M14 melanoma was > 100 µM in each case.

Consider `COc1ccc(CC2=NCCc3cc(OC)c(OC)cc32)cc1Br`, for which the TGI in the assay with UACC-257 melanoma is 82.6 µM; in the assay with SF-295 CNS, 30.4 µM; in the assay on COLO 205 colon it was 37.4 µM; with HL-60(TB) leukemia, 21.7 µM; in the assay on SK-MEL-2 melanoma it was > 100 µM; in the assay with CCRF-CEM leukemia it was > 100 µM. This molecule also returned a TGI in the assay with MALME-3M melanoma of 70.4 µM.

Turning to `CCOC1=C2NC(Cc3ccc(F)cc3)=NC2C(=O)c2ccccc21` (configuration not stated), the TGI in the assay on UACC-257 melanoma was found to be 50.8 µM; in the assay with COLO 205 colon, 87.5 µM; in the assay on HL-60(TB) leukemia it was 22.2 µM; with SK-MEL-2 melanoma, 44.2 µM; with CCRF-CEM leukemia, 61.8 µM; in the assay on MALME-3M melanoma, 55.8 µM. This molecule also registered a TGI in the assay on M14 melanoma of 73.4 µM.

These data come from PubChem BioAssay (NCI).
